According to US10106589B2, “Compositions and methods for immunomodulation” (FUNDACIO INSTITUT D'INVESTIGACIO BIOMEDICA DE BELLVITGE …, priority 2011, dated 2018):

Key:
[1] = test system: human Mo-DCs; set-up: key: (−) negligible; (+) low; (++) moderate; (+++) high; conditions: Vit D3-treated and LPS-induced DCs; data from Heitger (2011); cited from earlier work
[2] = test system: human Mo-DCs; assay: Apoptosis determination (Annexin V / 7-ADD); type: cell-based; set-up: key: (−) negligible; (+) low; (++) moderate; (+++) high; conditions: viability; treated and LPS-induced DCs
Excerpt: Double staining using with the fluorescent dyes Annexin V (Annexin V-PE Apoptosis Detection Kit I, BD Pharmigen, San Diego, Calif.) and 7-amino-actinomycin D (7-ADD) (BD Pharmigen), and flow cytometry analysis, was employed to assess the viability/apoptosis status of C4BP α7β1-, C4BP α7β0-, recC4BP α6β0-, or Factor H-treated and untreated Mo-DCs.

[3] = test system: allogeneic CD3+ T cells; assay: Mixed leukocyte reaction ([3H]-thymidine incorporation); type: cell-based, human; set-up: key to Alloproliferation (T CD3^+): (−) negligible; (+) low; (++) moderate; (+++) high; conditions: functional assay; treated and LPS-induced DCs
Experimental: CD3^+ T cells (10^5/well) and C4BP-treated (α7β1 and α7β0), or Factor H-treated, and LPS-activated Mo-DCs were seeded in a 96-well round-bottom plate at various DC:T cell ratios (1:40, 1:80 and 1:160) and cultured in X-VIVO 15 medium (Biowittaker, Walkersville, Md.) supplemented with 100 μg/ml of streptomycin, 100 IU/ml of penicillin and 2 mM L-glutamine (all from Invitrogen) plus 2% Human AB Serum. Allospecific proliferation was measured after 5 days of incubation. At day 4, the […] [^3H]-thymidine (1 μCi/well, Perkin Elmer, Boston, Mass.) was added, followed by incubation for another 16 h. Labeled cells were then harvested onto glass-fiber filters with a Filtermate Harvester (Packard, Meriden, Conn.), and the T cell proliferation rate was determined by the amount of [^3H]-thymidine incorporation, which was measured in a TopCount NXT counter (Packard). Results are reported as the mean cpm±SD of thymidine incorporation in quadruplicate culture wells.

[4] = test system: LPS-matured human Mo-DCs; set-up: key: (−) negligible; (+) low; (++) moderate; (+++) high; conditions: cytokine; Vit D3-treated and LPS-induced DCs; data from Naranjo-Gomez et al. (2011); cited from earlier work
[5] = test system: human Mo-DCs; assay: Flow cytometry of cell surface markers on treated, LPS-matured Mo-DCs; type: cell-based; set-up: key to HLA-DR / CD40 / CD83 / CD86 / CD14 / CD1a / CCR7: (−) negligible; (+) low; (++) moderate; (+++) high; conditions: surface marker; treated and LPS-induced DCs
Experimental: Peripheral blood mononuclear cells (PBMCs) were obtained from buffy coat preparations belonging to healthy donors from the Blood and Tissue Bank (Barcelona, Spain) after Ficoll-Paque™ density centrifugation (GE Healthcare Bio-Sciences AB; Uppsala, Sweden). Monocytes were purified by two different methods: 1) Cells were plated at 1×10^6 cells/ml in 60 mm culture plates (Corning, Spain) in RPMI without serum and allowed to adhere for 2 h at 37° C. in 5% CO2. The non-adherent cells were removed by washing in PBS. […] 2) Cells were purified using colloidal super-paramagnetic microbeads conjugated with monoclonal mouse anti-human CD14 antibodies (MACS, Miltenyi Biotec, Auburn, Calif., or EasySep® Positive Selection Cocktail, StemCell Technologies, Grenoble, France). The purity of CD14^+ cells was tested by CD14 staining and flow cytometry analysis (>90% CD14^+ cells). Monocyte-derived DCs (Mo-DCs) were generated supplementing the monocyte cultures with complete RPMI 1640 medium plus GM-CSF (800 UI/ml) and IL-4 (500 UI/ml) (both from Gentaur, Kampenhout, Belgium) at day 0 and day 3 of culture. For DC maturation, at day 5 iDCs were further stimulated for 48 h with 5 μg/ml LPS (Escherichia coli 055.B5, Sigma L2880, Copenhagen, Denmark).
Cell surface phenotypes were analyzed using the following monoclonal antibodies: FITC-conjugated anti-HLA-DR (Immu-357), FITC-conjugated anti-CD83 (HB15a), FITC-conjugated anti-CD14 (RMO52), PE-conjugated anti-CD40 (MAB89), PE-conjugated anti-CD1a (BL6), PE-conjugated anti-CD80 (MAB104), PE-conjugated anti-CD86 (HA5.2B7) (all from Beckman-Coulter), Alexa Fluor 488-conjugated anti-CCR7 (TG8/CCR7, Biolegend, San Diego, Calif.), and the respective isotype controls from the same commercial sources. After washing with PBS, cells were subsequently stained with 3 μl MoAb/10^5 cells in 100 μl of FACS buffer (PBS containing 1% BSA and 0.1% sodium azide) for 20 min at room temp. Stained cells were analysed using a FACScalibur (Becton Dickinson). Mo-DCs were gated according to forward scatter (FSC) and side scatter (SSC) parameters. The results were analysed using CellQuestPro software (Becton Dickinson).
Both the different C4BP isoforms (α7β1, α7β0 and α6β0), and Factor H were added at 2, 5 and 10 μg/ml throughout Mo-DC differentiation, maturation, or both. Namely, for the differentiation assays the proteins were added at day 0 and replenished at day 3. For the maturation assays the proteins were added at day 5, either alone or combined with LPS. Finally, for the differentiation plus maturation assays the proteins were added at days 0, 3 and 5 (at the last time point, combined with LPS).

In the case of `C=C1/C(=C\C=C2/CCC[C@]3(C)[C@@H]([C@H](C)CCCC(C)(C)O)CC[C@@H]23)C[C@@H](O)C[C@@H]1O` [Vit D3, calcitriol, reference compound], the IDO [1] is listed as “+++ (**)”, the Apoptosis after treatment [2] is listed as “+” and the “Alloproliferation (T CD3^+)” value [3] is listed as “−”. The IL-10 [4] was “++ (*)”, the IL-12 [4] was “− (*)” and the CCR7 [5] was “++”. For the same compound, the CD1a [5] was “−”, the CD14 [5] was “+” and the CD40 [5] was “+”. For the same compound, the CD83 [5] was “+”, the CD86 [5] was “−” and the HLA-DR [5] was “+”.
